What is called IC50 is the concentration that gives 50% inhibition. As a reminder, the inhibition is the relative decrease from the control value, in per cent.

The first test concerns the target T1, Aromatase (Homo sapiens, UniProt P11511).
T1 sequence (P11511 whole entry): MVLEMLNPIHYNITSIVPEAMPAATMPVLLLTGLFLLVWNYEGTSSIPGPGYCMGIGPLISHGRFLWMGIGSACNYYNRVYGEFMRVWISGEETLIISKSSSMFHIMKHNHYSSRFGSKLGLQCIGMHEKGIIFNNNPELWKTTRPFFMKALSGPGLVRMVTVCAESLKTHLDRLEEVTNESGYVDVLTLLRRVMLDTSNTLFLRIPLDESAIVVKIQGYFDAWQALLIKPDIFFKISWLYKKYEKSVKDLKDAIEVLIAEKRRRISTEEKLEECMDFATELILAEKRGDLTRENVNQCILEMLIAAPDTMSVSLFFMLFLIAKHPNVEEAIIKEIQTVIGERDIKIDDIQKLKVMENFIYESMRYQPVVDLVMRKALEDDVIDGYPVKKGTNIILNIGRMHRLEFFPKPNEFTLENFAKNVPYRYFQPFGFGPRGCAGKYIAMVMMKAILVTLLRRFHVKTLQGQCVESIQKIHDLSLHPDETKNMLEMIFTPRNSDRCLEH
The experiment in a line: Inhibition of aromatase in human placental microsomes assessed as tritiated water release after 15 mins using [1-beta, 3H]androstenedione as substrate by scintillation counting. Also on record: species or system Placenta.
With `C[C@H]1[C@H](C)CC[C@]2(C(=O)O)CC[C@]3(C)C(=CC[C@@H]4[C@@]5(C)CC/C(=N\O)C(C)(C)[C@@H]5CC[C@]43C)[C@H]12`, the IC50 was > 500 µM.

On to `C[C@H]1[C@H](C)CC[C@]2(C(=O)O)CC[C@]3(C)C(=CC[C@@H]4[C@@]5(C)CC[C@H](O)C(C)(C)[C@@H]5CC[C@]43C)[C@H]12` [URSOLIC ACID], for which the IC50 is 32 µM.

Turning to `CC(=O)O[C@H]1CC[C@]2(C)[C@H]3CC=C4[C@@H]5[C@@H](C)[C@H](C)CC[C@]5(C(=O)NCCCN5CCN(CCCN)CC5)CC[C@@]4(C)[C@]3(C)CC[C@H]2C1(C)C`, the IC50 is < 500 µM.

Consider `C[C@H]1[C@H](C)CC[C@]2(C(=O)O)CC[C@]3(C)C(=CC[C@@H]4[C@@]5(C)CCC(=O)NC(C)(C)[C@@H]5CC[C@]43C)[C@H]12`, for which the IC50 is > 500 µM.

For the compound `C[C@H]1[C@H](C)CC[C@]2(C(=O)NCCCN3CCN(CCCN)CC3)CC[C@]3(C)C(=CC[C@@H]4[C@@]5(C)CC[C@H](O)C(C)(C)[C@@H]5CC[C@]43C)[C@H]12`, the IC50 is < 500 µM.

Consider `C[C@]12CCC(=O)C(O)=C1CC[C@@H]1[C@@H]2CC[C@]2(C)C(=O)CC[C@@H]12` [FORMESTANE], for which the IC50 worked out at 0.8 µM.

In the case of `C[C@H]1[C@H](C)CC[C@]2(C(=O)O)CC[C@]3(C)C(=CC[C@@H]4[C@@]5(C)CCC(=O)C(C)(C)[C@@H]5CC[C@]43C)[C@H]12` [URSONIC ACID], the IC50 is > 500 µM.

Take `C=C(C)[C@@H]1CC[C@]2(C)[C@H](CC=C3[C@@H]4[C@@H](C)[C@H](C)CC[C@]4(C(=O)O)CC[C@]32C)[C@@]1(C)CCC#N`: the IC50 is > 500 µM.

Another test addresses T1, Aromatase. The experiment in a line: Inhibition of aromatase at 40.7 uM.
In the case of `C[C@H]1[C@H](C)CC[C@]2(C(=O)O)CC[C@]3(C)C(=CC[C@@H]4[C@@]5(C)CC[C@H](O)C(C)(C)[C@@H]5CC[C@]43C)[C@H]12` [URSOLIC ACID], 40.7 µM produced 12% inhibition.

Turning to `CC1(C)CC[C@]2(C(=O)O)CC[C@]3(C)C(=CC[C@@H]4[C@@]5(C)CC[C@H](O)C(C)(C)[C@@H]5CC[C@]43C)[C@@H]2C1` [OLEANOLIC_ACID], the inhibition at 40.7 µM was determined as 12%.

A further test addresses T1, Aromatase. The experiment in a line: Inhibition of aromatase.
The compound `C[C@H]1[C@H](C)CC[C@]2(C(=O)O)CC[C@]3(C)C(=CC[C@@H]4[C@@]5(C)CC[C@H](O)C(C)(C)[C@@H]5CC[C@]43C)[C@H]12` [URSOLIC ACID] gave a 50% inhibitory concentration (IC50) of 30.7 µM.

Turning to `CC(=O)O[C@H]1CC[C@]2(C)[C@H]3CC=C4[C@@H]5[C@@H](C)[C@H](C)CC[C@]5(C(=O)O)CC[C@@]4(C)[C@]3(C)CC[C@H]2C1(C)C` [O-ACETYLURSOLIC ACID], the midpoint of inhibition, the IC50, lay at 85.6 µM.

(Values after ChEMBL document CHEMBL1156709, “Evaluation of ursolic acid isolated from Ilex paraguariensis and derivatives on aromatase inhibition” (Eur J Med Chem, 2008).)
